Laboratory results taken from patent publication US6346533B1, “Intraconazole exhibiting an improved solubility, a method of preparing the same and a pharmaceutical composition for oral administration comprising the same” (Dong-A Pharmaceutical Co., Ltd., priority 1997, dated 2002).
Values after ≈ are worked out from the molar mass of the structure shown.

What was measured:
[1] = Determination of solubility in artificial gastric juice; type: physicochemical; settings: 2 hours; for Solubility: artificial gastric juice, 37° C., pH 1.2
Method: Excess of itraconazole from Example 1 and conventional itraconazole prepared without dissolution-induced drying were added to artificial gastric juice of pH 1.2 and shaken at 37° C. for 2 hours, respectively. Each of the mixture were filtered through a membrane filter with pore diameter of […] and each of the filtrate was subjected to high-performance liquid chromatography, thereby obtaining gastric juice solubility.

[2] = cited from earlier work
[3] = n-octanol and aqueous buffer solution of pH 8.1; cited from earlier work

SMILES | Solubility relative to itraconazole without dissolution-induced drying ([1]; artificial gastric juice pH 1.2, 37° C.) [times] | Solubility [1] [µg/mL] | Solubility in water [2] | log partition coefficient [3]
CCC(C)n1ncn(-c2ccc(N3CCN(c4ccc(OCC5COC(Cn6cncn6)(c6ccc(Cl)cc6Cl)O5)cc4)CC3)cc2)c1=O (centres unmarked) [Itraconazole of Example 1, itraconazole] | 62 | 218.6 (≈ 310 µM) |  | 
CCC(C)n1ncn(-c2ccc(N3CCN(c4ccc(OCC5COC(Cn6cncn6)(c6ccc(Cl)cc6Cl)O5)cc4)CC3)cc2)c1=O (centres unmarked) [The conventional itraconazole without dissolution-induced dr] |  | 3.5 (≈ 4.96 µM) |  | 
CCC(C)n1ncn(-c2ccc(N3CCN(c4ccc(OCC5COC(Cn6cncn6)(c6ccc(Cl)cc6Cl)O5)cc4)CC3)cc2)c1=O (racemic) [Itraconazole, itraconazole] |  |  | less than 1 μg/ml | 5.66
